From ChEMBL document CHEMBL1799932, “Antimalarial pyrido[1,2-a]benzimidazoles” (J Med Chem, 2011)
Blank lines part the entries; values can stand above or below the compound they belong to.

How the values were obtained:
[1] = Selectivity index, ratio IC50 for rat L6 cells to IC50 for multidrug-resistant Plasmodium falciparum K1 infected in human red blood cells; format: functional
[2] = tested on: L6; assay: Cytotoxicity at rat L6 cells after 72 hrs by microplate alamar blue assay; format: cell-based
[3] = Distribution coefficient, log D of the compound at pH 7.4; format: physicochemical; conditions: octanol/water
[4] = tested on: Plasmodium falciparum; assay: microbe, parasite or virus in culture; conditions: K1
Description: (§1) Antimalarial activity against multidrug-resistant Plasmodium falciparum K1 infected in human red blood cells assessed as 3H-hypoxanthine incorporation after 48 hrs by liquid scintillation counting

[5] = tested on: Plasmodium falciparum; assay: microbe, parasite or virus in culture; conditions: HB3
Description: Antimalarial activity against Plasmodium falciparum HB3

[6] = tested on: Plasmodium falciparum; assay: microbe, parasite or virus in culture; conditions: FCR-3/Gambia
Description: Antimalarial activity against Plasmodium falciparum FCR3

[7] = tested on: Plasmodium falciparum; assay: microbe, parasite or virus in culture; conditions: Mad20/Papua New Guinea
Description: Antimalarial activity against Plasmodium falciparum Mad20

[8] = tested on: Plasmodium falciparum; assay: microbe, parasite or virus in culture; conditions: NF54
Description: Antimalarial activity against Plasmodium falciparum NF54

[9] = tested on: Plasmodium falciparum; assay: microbe, parasite or virus in culture; conditions: K1; remark: listed apart in the source
Description: Antimalarial activity against Plasmodium falciparum K1

[10] = Metabolic stability in mouse liver microsomes assessed as intrinsic clearance per mg protein after 60 mins by LC-MS analysis; format: ADME, Microsome
[11] = Metabolic stability in human liver microsomes assessed as intrinsic clearance per mg protein after 60 mins by LC-MS analysis; format: ADME, Microsome
[12] = Metabolic stability in rat liver microsomes assessed as intrinsic clearance per mg protein after 60 mins by LC-MS analysis; format: ADME, Microsome
[13] = Metabolic stability in human liver microsomes assessed as degradation half life after 60 mins by LC-MS analysis; format: ADME, Microsome
[14] = Metabolic stability in rat liver microsomes assessed as degradation half life after 60 mins by LC-MS analysis; format: ADME, Microsome
[15] = Metabolic stability in mouse liver microsomes assessed as degradation half life after 60 mins by LC-MS analysis; format: ADME, Microsome
[16] = tested on: Plasmodium berghei; assay: Antimalarial activity against GFP-transfected Plasmodium berghei strain ANKA infected in NMRI mouse assessed as reduction in parasitemia at 50 mg/kg/day, ip administered for 4 consecutive days measured 24 hrs after last treatment by FACS analysis relative to control; format: functional; design: scale not given: the % may be the effect or the level left; conditions: route intraperitoneal
[17] = tested on: Plasmodium falciparum
Description: as §1

SMILES: CCN(CC)CCCNc1cc(-c2cccc(C(F)(F)F)c2)c(C#N)c2nc3ccccc3n12
Ratio IC50 [1]: 128 | IC50 ([2]; l6): 24.3 µM | logD [3]: 2.97 | IC50 [4]: 0.19 µM

SMILES: N#Cc1c(-c2ccc(C(F)(F)F)cc2)cc(NCCN2CCOCC2)n2c1nc1ccccc12
Ratio IC50 [1]: 68 | IC50 ([2]; Rattus norvegicus, L6, 72 h): 33.3 µM | logD [3]: 3.72 | IC50 [4]: 0.49 µM

SMILES: CN(C)CCNc1cc(-c2ccc(C(F)(F)F)cc2)c(C#N)c2nc3ccccc3n12
Ratio IC50 [1]: >1600 | IC50 ([2]; Rattus norvegicus, L6, 72 h): > 210 µM | logD [3]: 2.45 | IC50 [4]: 0.13 µM

SMILES: CN(C)CCNc1cc(-c2ccc(Cl)cc2)c(C#N)c2nc3ccccc3n12
Ratio IC50 [1]: 62.9 | IC50 ([2]; Rattus norvegicus, L6, 72 h): 19.5 µM | logD [3]: 2.05 | IC50 [4]: 0.31 µM

SMILES: CN(C)CCCNc1cc(-c2cccc(C(F)(F)F)c2)c(C#N)c2nc3ccccc3n12
Ratio IC50 [1]: 474 | IC50 ([2]; Rattus norvegicus, L6, 72 h): 180 µM | logD [3]: 2.49 | IC50 [4]: 0.38 µM

SMILES: C[C@@H]1CC[C@H]2[C@@H](C)C(=O)O[C@@H]3O[C@@]4(C)CC[C@@H]1[C@]32OO4 [ARTEMISININ]
IC50 [4]: 0.006 µM | IC50 [5]: 0.003 µM | IC50 [6]: 0.005 µM | IC50 [7]: 0.008 µM

SMILES: CCN(CC)CCCNc1cc(-c2ccccc2)c(C#N)c2nc3ccccc3n12
Ratio IC50 [1]: >150 | IC50 ([2]; Rattus norvegicus, L6, 72 h): > 230 µM | logD [3]: 2 | IC50 [4]: 1.53 µM

SMILES: CN(C)CCNc1cc(-c2ccccc2)c(C#N)c2nc3ccccc3n12
Ratio IC50 [1]: >50 | IC50 ([2]; Rattus norvegicus, L6, 72 h): > 80 µM | logD [3]: 1.48 | IC50 [4]: 1.49 µM

SMILES: CCN(CC)CCNc1cc(-c2ccc(F)cc2)c(C#N)c2nc3ccccc3n12
Ratio IC50 [1]: 226 | IC50 ([2]; Rattus norvegicus, L6, 72 h): 56.5 µM | logD [3]: 1.9 | IC50 [4]: 0.25 µM

SMILES: CCN(CC)CCCNc1cc(C(F)(F)F)c(C#N)c2nc3ccccc3n12
Ratio IC50 [1]: 42.2 | IC50 ([2]; Rattus norvegicus, L6, 72 h): 87.8 µM | logD [3]: 2.54 | IC50 [4]: 2.08 µM

IC50 [8]: 0.053 µM | IC50 [9]: 0.023 µM
SMILES: CCCc1cc(N2CCN(Cc3ccc(F)cc3)CC2)n2c(nc3ccccc32)c1C#N

SMILES: N#Cc1c(-c2ccc(C(F)(F)F)cc2)cc(NCCN2CCCC2)n2c1nc1ccccc12
Ratio IC50 [1]: 2751 | IC50 ([2]; Rattus norvegicus, L6, 72 h): 146 µM | logD [3]: 2.58 | IC50 [4]: 0.053 µM

SMILES: CN(C)CCCNc1cc(-c2ccccc2)c(C#N)c2nc3ccccc3n12
Ratio IC50 [1]: 71 | IC50 ([2]; Rattus norvegicus, L6, 72 h): 108 µM | logD [3]: 1.52 | IC50 [4]: 1.52 µM

SMILES: Cl.N#Cc1c(-c2ccc(C(F)(F)F)cc2)cc(NCCCN2CCOCC2)n2c1nc1ccccc12
microsomal CLint [10]: 87 µL/min/mg | microsomal CLint [11]: 166 µL/min/mg | microsomal CLint [12]: 234 µL/min/mg | half-life [13]: 10.4 min | half-life [14]: 7.4 min | half-life [15]: 19.9 min

SMILES: CN(C)CCCNc1cc(-c2ccc(C(F)(F)F)cc2)c(C#N)c2nc3ccccc3n12.Cl.Cl
IC50 ([2]; l6): 21.1 µM | Activity [16]: 30.7% | IC50 [17]: 0.26 µM

SMILES: N#Cc1c(-c2ccc(C(F)(F)F)cc2)cc(NCCN)n2c1nc1ccccc12
Ratio IC50 [1]: 3.4 | IC50 ([2]; Rattus norvegicus, L6, 72 h): 5.11 µM | logD [3]: 1.8 | IC50 [4]: 1.49 µM

SMILES: CCNCCN(CC)c1cc(-c2ccc(C(F)(F)F)cc2)c(C#N)c2nc3ccccc3n12
Ratio IC50 [1]: 22.9 | IC50 ([2]; Rattus norvegicus, L6, 72 h): 21.5 µM | logD [3]: 3.52 | IC50 [4]: 0.94 µM

SMILES: CCN(CC)CCCNc1cc(-c2ccc(F)cc2)c(C#N)c2nc3ccccc3n12
Ratio IC50 [1]: 122 | IC50 ([2]; Rattus norvegicus, L6, 72 h): 86.6 µM | logD [3]: 1.93 | IC50 [4]: 0.71 µM

SMILES: CN(C)CCCNc1cc(-c2ccc(F)cc2)c(C#N)c2nc3ccccc3n12
Ratio IC50 [1]: 43 | IC50 ([2]; Rattus norvegicus, L6, 72 h): 11.6 µM | logD [3]: 1.45 | IC50 [4]: 0.27 µM

SMILES: CCN(CC)CCNc1cc(-c2cccc(F)c2)c(C#N)c2nc3ccccc3n12
Ratio IC50 [1]: 225 | IC50 ([2]; Rattus norvegicus, L6, 72 h): 124 µM | logD [3]: 1.99 | IC50 [4]: 0.55 µM

IC50 [8]: 0.052 µM | IC50 [9]: 0.05 µM
SMILES: Cc1cc(N2CCN(Cc3ccccc3)CC2)n2c(nc3ccccc32)c1C#N

SMILES: CN(C)CCNc1cc(C(F)(F)F)c(C#N)c2nc3ccccc3n12
Ratio IC50 [1]: 13 | IC50 ([2]; Rattus norvegicus, L6, 72 h): 44.7 µM | logD [3]: 2.01 | IC50 [4]: 3.43 µM

SMILES: CN(C)CCCNc1cc(-c2ccc(C(F)(F)F)cc2)c(C#N)c2nc3ccccc3n12
Ratio IC50 [1]: 455 | IC50 ([2]; Rattus norvegicus, L6, 72 h): > 200 µM | logD [3]: 2.49 | IC50 [4]: 0.44 µM

SMILES: CCN(CC)CCCNc1cc(-c2cccc(F)c2)c(C#N)c2nc3ccccc3n12
Ratio IC50 [1]: 121 | IC50 ([2]; Rattus norvegicus, L6, 72 h): 55.7 µM | logD [3]: 2.02 | IC50 [4]: 0.46 µM

SMILES: CCN(CC)CCNc1cc(C(F)(F)F)c(C#N)c2nc3ccccc3n12
Ratio IC50 [1]: 63.7 | IC50 ([2]; Rattus norvegicus, L6, 72 h): 121 µM | logD [3]: 2.51 | IC50 [4]: 1.9 µM
